Assay results: ChEMBL document CHEMBL5244244, “Fight against novel coronavirus: A perspective of medicinal chemists” (Eur J Med Chem, 2020)

What was measured:
[1] = Cytotoxicity against African green monkey Vero E6 cells assessed as reduction of cell viability measured after 48 hrs by CCK-8 assay; format: toxicity, cell-based, Vero C1008; conditions: chlorocebus sabaeus
[2] = Selectivity index, ratio of CC50 for African green monkey Vero E6 cells to EC50 for antiviral activity against SARS-CoV-2 2019BetaCoV/Wuhan/WIV04/2019; format: toxicity, Vero C1008; conditions: read-out: Selectivity Index
SARS-CoV-2 [3] = experiment: Antiviral activity against SARS-CoV-2 2019BetaCoV/Wuhan/WIV04/2019 infected in African green monkey Vero E6 cells assessed as inhibition of viral replication measured after 48 hrs; format: functional, organism-based; conditions: Severe acute respiratory syndrome coronavirus 2, 2019BetaCoV/Wuhan/WIV04/2019, Vero C1008, 48 h
[4] = biological target: Replicase polyprotein 1ab (Severe acute respiratory syndrome coronavirus 2, UniProt P0DTD1); experiment: Inhibition of SARS-CoV-2 main protease
[5] = Selectivity index, ratio of CC50 for African green monkey Vero cells to EC50 for antiviral activity against SARS-CoV-2; format: toxicity; conditions: read-out: Selectivity Index
[6] = Cytotoxicity against african green monkey Vero cells; format: toxicity, cell-based; conditions: chlorocebus sabaeus
SARS-CoV-2 [7] = experiment: Antiviral activity against SARS-CoV-2 infected in African green monkey Vero cells assessed as inhibition of viral replication; format: functional, organism-based; conditions: Severe acute respiratory syndrome coronavirus 2, Vero

## NC(=O)c1nc(F)c[nH]c1=O
[1]
  CC50 at 48 h: > 400 µM
[2]
  selectivity ratio: > 6.46

## CCN(CC)CCCC(C)Nc1ccnc2cc(Cl)ccc12 (stereo not drawn) [CHLOROQUINE]
SARS-CoV-2 [3]
  EC50: 1.13 µM
[1]
  CC50 at 48 h: > 100 µM

## Cc1cccc(C)c1OCC(=O)N[C@@H](Cc1ccccc1)[C@@H](O)C[C@H](Cc1ccccc1)NC(=O)[C@H](C(C)C)N1CCCNC1=O [LOPINAVIR]
[4]
  IC50: 9.12 µM

## N=C(N)c1ccc2cc(OC(=O)c3ccc(N=C(N)N)cc3)ccc2c1 [NAFAMOSTAT]
[5]
  selectivity ratio: 4.44
[6]
  CC50: > 100 µM
SARS-CoV-2 [7]
  EC50: 22.5 µM

## O=C(Nc1ccc([N+](=O)[O-])cc1Cl)c1cc(Cl)ccc1O [NICLOSAMIDE]
SARS-CoV-2 [3]
  EC50: 2.12 µM
[1]
  CC50 at 48 h: > 35.5 µM

## Nc1nc2c(ncn2CCC(CO)CO)c(=O)[nH]1 [PENCICLOVIR]
[1]
  CC50 at 48 h: > 400 µM
[2]
  selectivity ratio: > 4.17

## NC(=O)c1ncn([C@@H]2O[C@H](CO)[C@@H](O)[C@H]2O)n1 [RIBAVIRIN]
[1]
  CC50 at 48 h: > 400 µM
